{"source": "patent US9556113B2", "about": "“Combination uses of dichloroacetate and oxamate, and their prodrugs, for cancer treatment” (The South Dakota Board of Regents, priority 2014, dated 2017)", "key": {"[1]": {"tested_on": "E6E7/Ras cells", "assay": "Extracellular acidification rate (ECAR), Seahorse XF24", "format": "cell-based, mouse", "conditions": "added at point B with additional glucose", "description": "FIG. 6 illustrates the reduction of extracellular acidification rate (ECAR) by prodrugs AT-N4-001 and AT-N4-002. (A) ECAR was measured using a Seahorse XF24 instrument. At time point A glucose was added to the cultures. At time point B the indicated drugs were added with additional glucose. At time point C 2-deoxyglucose was added to block glycolysis. (B) Bar graph of ECAR at the time point indicated as Rate 8 in A.\nAT-N4-001 and AT-N4-002 should each release two molecules of DCA and one molecule of oxamate. Both DCA and oxamate are expected to reduce cellular lactate production. Therefore, we examined the changes in lactate after treatment of E6E7/Ras cells with the prodrugs. E6E7/Ras cells were seeded into 100 mm dishes and the next day treated with 5 mM AT-N4-001, 5 mM AT-N4-002, 5 mM DCA plus 5 mM oxamate, or 5 mM DCA alone. Culture medium was collected after 4 hours of treatment and lactate levels were determined (FIG. 5). […] To confirm the effects of these compounds on lactate production, the extra cellular acidification rate (ECAR) was measured using a Seahorse XF24 Extracellular Flux analyzer. Since lactate is transported from cells together with a proton, acidification of the culture medium (ECAR) is an estimate of lactate production and the glycolytic rate of cells. In the experiment shown in FIG. 6A, ECAR measurements were initiated in the absence of glucose. […]"}, "[2]": {"tested_on": "HPV+ HNSCC tumor", "assay": "IHC of tumors for cleaved caspase 3 and Ki67", "format": "in vivo, wild-type mice", "conditions": "one week treatment plus one round of CRT", "description": "FIG. 10 illustrates Effect of AT-N4-002 on tumor cell apoptosis and cell proliferation. (A) Sections of tumors from mice treated either with chemo-radiation (Tx) or chemoradiation plus AT-N4-002 were subjected to IHC to detect cleaved caspase 3 or Ki67. (B) Cleaved caspase 3 positive cells were counted in 5 random fields from the IHC experiment shown in A. (C) The percent of Ki67 positive cells from the IHC experiment shown in A.\nTo examine potential direct, immune-independent effects of the prodrug on tumors, tumor bearing wild-type mice were treated for one week with AT-N4-002 plus one round of chemoradiation. Tumors were then harvested and processed for immunohistochemical detection of Ki67, a proliferation marker, and cleaved caspase 3, a marker for apoptosis (FIG. 10). […] Such direct effects on the tumor cells could be responsible for the reduced tumor growth observed in immune deficient mice."}, "[3]": {"tested_on": "HPV+ HNSCC tumor", "assay": "Intratumoral pH and tumor lactate", "format": "in vivo, wild-type mice", "description": "FIG. 11 illustrates the effect of prodrug on tumor pH and tumor lactate. (A) Intratumoral pH in living animals was determined by inserting a needle pH electrode directly into the tumor. The pH was read at 3 different depths in each tumor. Each marker on the graph represents a separate pH measurement. The bar represents the mean and the error bars the standard deviation. (B) Frozen sections of excised tumors were used to estimate lactate levels in the tumor microenvironment. This was performed using the In Vivo Xtreme imager to visualize lactate-dependent luciferase activity as described by Broggini-Tenzer et al. [Metabolism of tumors under treatment: mapping of metabolites with quantitative bioluminescence. Radiother Oncol 99, 398-403 (2011)]. (C) Plot of lactate measurements in B. Each marker represents one tumor. The bar represents the mean and the error bars the standard deviation.\nThe ability of DCA and oxamate to enhance survival in wild-type mice following chemoradiation correlates closely with their ability to reduce tumor lactate. We therefore examined the ability of the prodrug AT-N4-002 to reduce tumor lactate. Wild-type tumor bearing mice were treated with either CRT or CRT followed by one week of daily ip injection of AT-N4-002. Lactate is exported from cells together with a proton and therefore promotes acidification of the tumor microenvironment. Intratumoral pH was measured with a needle pH electrode. […] (FIG. 11B,C)."}, "[4]": {"conditions": "CRT followed by one week of daily ip injection"}}, "data": [{"smiles": "NC(=O)C(=O)OCC(COC(=O)C(Cl)Cl)OC(=O)C(Cl)Cl", "note": "(stereo not drawn) [AT-N4-002, 3-(2-amino-2-oxoacetoxy)propane-1,2-diyl bis(2,2-dichloroacetate)]", "values": [{"measurement": "increase in ECAR after glucose addition (FIG. 6)", "setting": "[1]", "value": "completely blocked"}, {"measurement": "Ki67 positive cells in tumor (FIG. 10C)", "setting": "[2]", "value": "appeared to decrease"}, {"measurement": "cleaved caspase 3 positive cells in tumor compared to CRT alone (FIG. 10B)", "setting": "[2]", "value": "significantly increased"}, {"measurement": "intratumoral pH compared to CRT group (FIG. 11A)", "setting": "[3]; [4]", "value": "significantly higher"}, {"measurement": "tumor lactate (FIG. 11B,C)", "setting": "[3]; [4]", "value": "decreased tumor lactate"}, {"measurement": "lactate production and acidity in tumor tissues versus DCA plus oxamate", "setting": "[3]; separate in vivo experiment, data not shown", "value": "more effective in reducing lactate production and acidity in tumor tissues than DCA plus oxamate"}]}]}
